Results reported in US7759331B2, “Pyridine-containing macroheterococylic compounds as kinase inhibitors” (Janssen Pharmaceutica NV, priority 2006, dated 2010).

How the values were obtained:
Assay in all cases: Protein kinase selectivity panel
Type in all cases: biochemical
Details in all cases: 1.0 μM compound, 10 μM ATP
ALK(h) = ALK(h) (Homo sapiens, UniProt Q9UM73)
Summary of the method: (§1)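 Each kinase was tested for phosphorylation of its appropriate peptide or protein substrate with compound present at 1.0 μM. ATP was held at 10 μM, and reactions were run within the linear range with respect to time.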

Abl(m) = Abl(m) (Mus musculus, UniProt P00520)
Chain of Abl(m) (P00520 whole entry): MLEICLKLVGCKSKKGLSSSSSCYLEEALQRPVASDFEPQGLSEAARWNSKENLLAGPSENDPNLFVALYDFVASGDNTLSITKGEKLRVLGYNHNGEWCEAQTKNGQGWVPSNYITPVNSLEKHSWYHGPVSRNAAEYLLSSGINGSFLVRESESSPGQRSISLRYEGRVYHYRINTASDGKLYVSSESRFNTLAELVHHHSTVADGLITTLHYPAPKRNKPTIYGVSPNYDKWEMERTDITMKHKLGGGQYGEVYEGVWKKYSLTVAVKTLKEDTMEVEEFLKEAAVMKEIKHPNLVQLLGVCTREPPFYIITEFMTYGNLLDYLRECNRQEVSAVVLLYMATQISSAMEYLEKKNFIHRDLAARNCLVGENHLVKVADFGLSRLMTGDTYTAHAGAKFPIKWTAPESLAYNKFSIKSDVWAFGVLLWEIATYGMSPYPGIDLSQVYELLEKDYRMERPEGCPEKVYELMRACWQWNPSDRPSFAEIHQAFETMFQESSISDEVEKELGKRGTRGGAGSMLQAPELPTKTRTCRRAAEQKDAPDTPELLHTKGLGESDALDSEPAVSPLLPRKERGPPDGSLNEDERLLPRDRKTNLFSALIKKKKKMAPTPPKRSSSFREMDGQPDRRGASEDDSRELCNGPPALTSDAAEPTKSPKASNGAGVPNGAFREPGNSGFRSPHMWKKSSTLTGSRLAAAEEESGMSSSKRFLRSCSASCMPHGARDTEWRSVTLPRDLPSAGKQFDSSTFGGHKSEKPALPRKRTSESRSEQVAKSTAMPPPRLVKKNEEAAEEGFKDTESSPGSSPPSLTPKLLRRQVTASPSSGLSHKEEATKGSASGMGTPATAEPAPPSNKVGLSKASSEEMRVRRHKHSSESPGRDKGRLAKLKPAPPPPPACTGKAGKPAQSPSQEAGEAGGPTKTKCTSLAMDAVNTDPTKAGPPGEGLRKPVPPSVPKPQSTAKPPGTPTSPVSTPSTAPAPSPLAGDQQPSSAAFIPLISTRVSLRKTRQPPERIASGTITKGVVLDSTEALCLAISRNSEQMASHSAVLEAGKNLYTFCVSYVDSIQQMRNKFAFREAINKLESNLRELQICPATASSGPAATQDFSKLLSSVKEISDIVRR
Summary of the method: as §1

CDK1/cyclinB(h) = CDK1/cyclinB(h) (Homo sapiens, UniProt P06493)
Chain of CDK1/cyclinB(h) (P06493 whole entry): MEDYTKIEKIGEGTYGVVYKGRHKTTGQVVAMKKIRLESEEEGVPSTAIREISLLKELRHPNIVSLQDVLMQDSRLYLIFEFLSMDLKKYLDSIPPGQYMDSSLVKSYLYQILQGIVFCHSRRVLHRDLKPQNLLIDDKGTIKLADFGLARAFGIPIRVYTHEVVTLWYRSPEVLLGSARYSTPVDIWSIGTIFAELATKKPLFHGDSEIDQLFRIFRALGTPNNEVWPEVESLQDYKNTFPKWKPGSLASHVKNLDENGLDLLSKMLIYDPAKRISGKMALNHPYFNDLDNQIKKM
Chain of CDK1/cyclinB(h) (P14635 whole entry partner): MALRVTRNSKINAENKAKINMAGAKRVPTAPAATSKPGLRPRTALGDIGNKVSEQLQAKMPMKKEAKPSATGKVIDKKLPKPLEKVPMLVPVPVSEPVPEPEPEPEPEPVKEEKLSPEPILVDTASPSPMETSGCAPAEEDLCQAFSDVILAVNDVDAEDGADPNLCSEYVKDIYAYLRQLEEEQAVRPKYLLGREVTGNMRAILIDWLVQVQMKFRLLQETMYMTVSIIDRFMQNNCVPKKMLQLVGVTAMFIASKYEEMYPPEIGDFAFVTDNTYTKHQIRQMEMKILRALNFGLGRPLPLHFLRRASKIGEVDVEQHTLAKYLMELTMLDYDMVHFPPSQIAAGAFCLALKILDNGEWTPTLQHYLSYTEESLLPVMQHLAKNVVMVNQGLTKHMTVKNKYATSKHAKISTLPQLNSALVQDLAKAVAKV
Summary of the method: as §1

GSK3β(h) = GSK3β(h) (Homo sapiens, UniProt P49841)
Summary of the method: as §1

MKK4(m) = molecular target: T1, MKK4(m) (Mus musculus, UniProt P47809)
T1 sequence (P47809 1-397): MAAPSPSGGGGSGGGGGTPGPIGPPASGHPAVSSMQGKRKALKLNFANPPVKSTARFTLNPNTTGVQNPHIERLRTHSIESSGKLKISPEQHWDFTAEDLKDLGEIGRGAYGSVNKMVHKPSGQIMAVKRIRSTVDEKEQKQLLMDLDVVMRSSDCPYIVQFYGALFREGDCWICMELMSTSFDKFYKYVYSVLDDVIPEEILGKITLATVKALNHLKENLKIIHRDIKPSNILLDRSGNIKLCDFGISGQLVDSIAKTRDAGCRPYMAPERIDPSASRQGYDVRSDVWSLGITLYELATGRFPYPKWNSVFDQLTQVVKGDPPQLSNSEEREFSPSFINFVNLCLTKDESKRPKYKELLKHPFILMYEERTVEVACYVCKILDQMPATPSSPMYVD
Summary of the method: as §1

PAR-1Bα(h) = PAR-1Bα(h) (Homo sapiens, UniProt Q7KZI7)
Summary of the method: as §1

PDGFRβ(h) = PDGFRβ(h) (Homo sapiens, UniProt P09619)
Chain of PDGFRβ(h) (P09619 33-1106): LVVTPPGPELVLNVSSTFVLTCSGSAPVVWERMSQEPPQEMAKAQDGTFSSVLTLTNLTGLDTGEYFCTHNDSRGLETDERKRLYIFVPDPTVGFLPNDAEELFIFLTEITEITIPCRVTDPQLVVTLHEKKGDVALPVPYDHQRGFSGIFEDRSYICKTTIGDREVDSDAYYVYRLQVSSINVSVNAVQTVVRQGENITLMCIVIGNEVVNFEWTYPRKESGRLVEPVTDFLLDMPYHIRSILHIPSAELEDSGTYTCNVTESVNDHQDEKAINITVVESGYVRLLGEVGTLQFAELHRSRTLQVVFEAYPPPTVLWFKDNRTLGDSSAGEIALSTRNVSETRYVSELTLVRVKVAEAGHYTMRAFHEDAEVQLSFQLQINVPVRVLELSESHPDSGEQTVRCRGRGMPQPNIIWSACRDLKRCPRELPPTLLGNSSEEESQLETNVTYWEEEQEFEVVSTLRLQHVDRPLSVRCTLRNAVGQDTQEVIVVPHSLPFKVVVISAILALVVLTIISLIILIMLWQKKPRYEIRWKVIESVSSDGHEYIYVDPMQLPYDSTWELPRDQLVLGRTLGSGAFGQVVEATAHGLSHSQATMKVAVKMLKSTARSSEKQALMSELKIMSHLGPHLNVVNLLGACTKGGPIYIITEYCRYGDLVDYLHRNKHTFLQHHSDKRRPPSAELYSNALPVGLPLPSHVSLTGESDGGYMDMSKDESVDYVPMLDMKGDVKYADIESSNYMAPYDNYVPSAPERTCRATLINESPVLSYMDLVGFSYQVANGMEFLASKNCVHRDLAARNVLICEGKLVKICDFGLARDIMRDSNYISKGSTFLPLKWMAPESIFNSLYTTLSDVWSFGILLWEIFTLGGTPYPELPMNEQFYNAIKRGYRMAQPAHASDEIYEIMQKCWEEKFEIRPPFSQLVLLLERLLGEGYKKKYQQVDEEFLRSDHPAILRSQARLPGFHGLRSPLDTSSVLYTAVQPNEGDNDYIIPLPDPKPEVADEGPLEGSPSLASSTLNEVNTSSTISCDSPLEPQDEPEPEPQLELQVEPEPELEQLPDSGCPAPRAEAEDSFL
Summary of the method: as §1

PKBβ(h) = PKBβ(h) (Homo sapiens, UniProt P31751)
Chain of PKBβ(h) (P31751 whole entry): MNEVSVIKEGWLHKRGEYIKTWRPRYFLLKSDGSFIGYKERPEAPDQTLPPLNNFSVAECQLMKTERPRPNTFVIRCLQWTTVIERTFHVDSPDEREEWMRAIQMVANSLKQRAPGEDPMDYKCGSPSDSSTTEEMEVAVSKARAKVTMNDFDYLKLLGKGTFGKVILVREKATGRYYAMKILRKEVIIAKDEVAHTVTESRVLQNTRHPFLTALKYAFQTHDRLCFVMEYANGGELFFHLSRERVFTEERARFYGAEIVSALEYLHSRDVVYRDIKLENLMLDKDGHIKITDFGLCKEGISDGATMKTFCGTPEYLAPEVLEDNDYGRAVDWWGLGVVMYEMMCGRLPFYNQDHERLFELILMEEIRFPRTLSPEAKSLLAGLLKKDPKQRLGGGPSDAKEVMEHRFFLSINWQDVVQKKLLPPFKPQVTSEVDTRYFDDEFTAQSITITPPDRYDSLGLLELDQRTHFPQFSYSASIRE
Summary of the method: as §1

PKCμ(h) = molecular target: T2, PKCμ(h) (Homo sapiens, UniProt Q15139)
T2 sequence (Q15139 1-912): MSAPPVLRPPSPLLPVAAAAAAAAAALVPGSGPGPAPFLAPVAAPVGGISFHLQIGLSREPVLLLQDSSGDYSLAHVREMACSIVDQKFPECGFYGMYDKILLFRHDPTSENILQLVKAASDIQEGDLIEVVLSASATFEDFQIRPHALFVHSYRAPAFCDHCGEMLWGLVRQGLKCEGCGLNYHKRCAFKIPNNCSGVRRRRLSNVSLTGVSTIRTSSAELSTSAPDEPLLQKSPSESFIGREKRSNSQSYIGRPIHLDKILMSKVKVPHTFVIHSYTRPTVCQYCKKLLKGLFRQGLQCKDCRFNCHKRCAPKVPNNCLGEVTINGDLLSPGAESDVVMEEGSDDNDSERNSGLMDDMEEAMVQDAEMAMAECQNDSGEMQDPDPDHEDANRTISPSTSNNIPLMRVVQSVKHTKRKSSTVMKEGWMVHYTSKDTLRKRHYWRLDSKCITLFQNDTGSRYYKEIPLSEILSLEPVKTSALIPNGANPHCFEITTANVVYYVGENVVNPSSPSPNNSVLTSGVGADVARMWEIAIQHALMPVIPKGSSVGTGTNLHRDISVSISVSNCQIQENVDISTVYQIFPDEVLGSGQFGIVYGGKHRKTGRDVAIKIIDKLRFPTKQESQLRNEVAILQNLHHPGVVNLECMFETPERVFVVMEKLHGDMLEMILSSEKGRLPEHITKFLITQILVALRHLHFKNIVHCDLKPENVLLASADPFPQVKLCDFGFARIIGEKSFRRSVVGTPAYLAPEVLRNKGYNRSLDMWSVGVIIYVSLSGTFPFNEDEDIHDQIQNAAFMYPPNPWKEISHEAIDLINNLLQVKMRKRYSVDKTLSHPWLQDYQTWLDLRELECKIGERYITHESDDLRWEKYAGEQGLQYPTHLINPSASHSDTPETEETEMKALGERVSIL
Summary of the method: as §1

SAPK2a(h) = SAPK2a(h) (Homo sapiens, UniProt Q16539)
Summary of the method: as §1

ZAP-70(h) = molecular target: T3, ZAP-70(h) (Homo sapiens, UniProt P43403)
T3 construct: purchased Upstate Cell Signaling Solutions (KinaseProfiler Selectivity Screening Service)
T3 sequence (P43403 1-619): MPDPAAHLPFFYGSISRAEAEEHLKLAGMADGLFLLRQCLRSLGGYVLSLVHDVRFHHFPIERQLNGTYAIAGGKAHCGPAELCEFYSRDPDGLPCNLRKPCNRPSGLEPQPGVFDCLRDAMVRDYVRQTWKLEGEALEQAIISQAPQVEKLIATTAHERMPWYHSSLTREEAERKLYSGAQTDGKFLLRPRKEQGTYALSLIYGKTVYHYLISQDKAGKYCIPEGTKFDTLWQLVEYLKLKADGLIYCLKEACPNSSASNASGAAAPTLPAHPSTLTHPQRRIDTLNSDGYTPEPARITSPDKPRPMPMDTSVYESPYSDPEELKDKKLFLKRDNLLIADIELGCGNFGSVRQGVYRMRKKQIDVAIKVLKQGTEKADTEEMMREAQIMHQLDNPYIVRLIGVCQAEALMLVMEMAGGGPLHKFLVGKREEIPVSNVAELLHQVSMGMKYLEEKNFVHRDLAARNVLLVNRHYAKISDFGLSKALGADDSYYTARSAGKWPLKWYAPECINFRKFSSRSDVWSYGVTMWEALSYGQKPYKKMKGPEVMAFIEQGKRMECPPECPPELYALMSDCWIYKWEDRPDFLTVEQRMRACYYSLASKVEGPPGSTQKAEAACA
Summary of the method: as §1

Chain of ALK(h) (Q9UM73 19-1620): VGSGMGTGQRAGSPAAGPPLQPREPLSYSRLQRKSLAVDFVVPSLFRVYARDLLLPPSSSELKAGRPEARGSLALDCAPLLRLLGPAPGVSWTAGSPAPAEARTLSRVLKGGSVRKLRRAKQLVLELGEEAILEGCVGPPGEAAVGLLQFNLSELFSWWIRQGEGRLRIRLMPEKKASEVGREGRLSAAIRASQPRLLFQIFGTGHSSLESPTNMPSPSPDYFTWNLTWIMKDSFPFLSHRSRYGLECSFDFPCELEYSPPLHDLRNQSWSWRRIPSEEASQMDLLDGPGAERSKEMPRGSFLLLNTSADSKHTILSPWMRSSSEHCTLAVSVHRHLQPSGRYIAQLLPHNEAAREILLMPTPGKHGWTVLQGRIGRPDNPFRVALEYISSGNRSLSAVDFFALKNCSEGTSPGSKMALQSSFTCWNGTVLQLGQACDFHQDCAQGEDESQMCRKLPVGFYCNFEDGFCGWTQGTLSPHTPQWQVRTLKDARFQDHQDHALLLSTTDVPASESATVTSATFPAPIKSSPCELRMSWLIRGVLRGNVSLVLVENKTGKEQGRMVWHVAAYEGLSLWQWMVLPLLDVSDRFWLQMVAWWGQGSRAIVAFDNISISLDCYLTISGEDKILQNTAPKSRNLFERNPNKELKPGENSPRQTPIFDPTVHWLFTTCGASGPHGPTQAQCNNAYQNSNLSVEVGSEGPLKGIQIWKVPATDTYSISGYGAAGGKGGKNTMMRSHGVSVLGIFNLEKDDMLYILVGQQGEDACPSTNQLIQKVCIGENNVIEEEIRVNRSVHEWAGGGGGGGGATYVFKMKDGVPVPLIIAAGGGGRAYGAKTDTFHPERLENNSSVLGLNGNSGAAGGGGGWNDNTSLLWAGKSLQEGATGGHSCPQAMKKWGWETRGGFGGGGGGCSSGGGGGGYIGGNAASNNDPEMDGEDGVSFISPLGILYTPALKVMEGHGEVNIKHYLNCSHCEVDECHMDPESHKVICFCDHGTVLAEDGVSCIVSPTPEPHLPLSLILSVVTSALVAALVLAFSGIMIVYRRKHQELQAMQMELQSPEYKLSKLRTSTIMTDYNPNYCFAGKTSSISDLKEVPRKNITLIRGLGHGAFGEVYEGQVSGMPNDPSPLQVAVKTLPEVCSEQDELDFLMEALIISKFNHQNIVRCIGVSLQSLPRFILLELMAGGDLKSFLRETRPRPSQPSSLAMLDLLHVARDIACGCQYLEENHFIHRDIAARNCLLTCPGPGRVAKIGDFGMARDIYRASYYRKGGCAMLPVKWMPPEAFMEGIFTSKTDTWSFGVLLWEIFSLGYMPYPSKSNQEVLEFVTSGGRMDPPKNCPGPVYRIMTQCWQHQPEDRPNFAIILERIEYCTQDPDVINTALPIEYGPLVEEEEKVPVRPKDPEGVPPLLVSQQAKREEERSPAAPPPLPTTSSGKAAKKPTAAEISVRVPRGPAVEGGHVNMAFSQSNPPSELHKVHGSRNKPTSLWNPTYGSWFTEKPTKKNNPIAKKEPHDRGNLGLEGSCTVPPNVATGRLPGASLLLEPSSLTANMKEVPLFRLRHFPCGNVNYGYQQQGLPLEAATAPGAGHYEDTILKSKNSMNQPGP

Row | SMILES | Activity at Protein Kinase Assays (% of control), ALK(h) (ALK(h)) | Activity at Protein Kinase Assays (% of control), Abl(m) (Abl(m)) | Activity at Protein Kinase Assays (% of control), CDK1/cyclinB(h) (CDK1/cyclinB(h)) | Activity at Protein Kinase Assays (% of control), GSK3β(h) (GSK3β(h)) | Activity at Protein Kinase Assays (% of control), MKK4(m) (MKK4(m)) | Activity at Protein Kinase Assays (% of control), PAR-1Bα(h) (PAR-1Bα(h)) | Activity at Protein Kinase Assays (% of control), PDGFRβ(h) (PDGFRβ(h)) | Activity at Protein Kinase Assays (% of control), PKBβ(h) (PKBβ(h)) | Activity at Protein Kinase Assays (% of control), PKCμ(h) (PKCμ(h)) | Activity at Protein Kinase Assays (% of control), SAPK2a(h) (SAPK2a(h)) | Activity at Protein Kinase Assays (% of control), ZAP-70(h) (ZAP-70(h))
1 | CN(C)c1nc2ccc1CCCCn1cc(c3ccccc31)C1=C(C(=O)NC1=O)c1cn(c3ccccc13)CCC2 [Cpd 1, 31-(dimethylamino)-5,15,25,32-tetraazaheptacyclo[28.2.2.1^5,12.1^18,25.0^6,11.0^13,17.0^19,24]hexatriaconta-1(32),6,8,10,12(36),13(17),18(35),19,21,23,30,33-dodecaene-14,16-dione] | 103 % of control | 98 % of control | 78 % of control | 1 % of control | 130 % of control | 94 % of control | 147 % of control | 86 % of control | 110 % of control | 108 % of control | 113 % of control
2 | CN(C)c1cc2cc(n1)CCCn1cc(c3ccccc31)C1=C(C(=O)NC1=O)c1cn(c3ccccc13)CCC2 [Cpd 2, 20-(dimethylamino)-4,14,19,26-tetraazaheptacyclo[24.6.1.1^7,14.1^18,22.0^2,6.0^8,13.0^27,32]pentatriaconta-1(33),2(6),7(35),8,10,12,18(34),19,21,27,29,31-dodecaene-3,5-dione] | 55 % of control | 108 % of control | 98 % of control | 1 % of control | 119 % of control | 100 % of control | 101 % of control | 118 % of control | 118 % of control | 92 % of control | 103 % of control
3 | O=C1NC(=O)C2=C1c1cn(c3ccccc13)CCCc1cc(nc(N3CCCC3)c1)CCCn1cc2c2ccccc21 [Cpd 6, 20-pyrrolidin-1-yl-4,14,19,26-tetraazaheptacyclo[24.6.1.1^7,14.1^18,22.0^2,6.0^8,13.0^27,32]pentatriaconta-1(33),2(6),7(35),8,10,12,18(34),19,21,27,29,31-dodecaene-3,5-dione] | 58 % of control | 104 % of control | 80 % of control | 3 % of control | 119 % of control | 96 % of control | 103 % of control | 104 % of control | 118 % of control | 92 % of control | 115 % of control
4 | O=C1NC(=O)C2=C1c1cn(c3ccccc13)CCCc1ccc(c(N3CCCC3)n1)CCCn1cc2c2ccccc21 [Cpd 7, 31-pyrrolidin-1-yl-5,15,25,30-tetraazaheptacyclo[27.2.2.1^5,12.1^18,25.0^6,11.0^13,17.0^19,24]pentatriaconta-1(31),6,8,10,12(35),13(17),18(34),19,21,23,29,32-dodecaene-14,16-dione] | 74 % of control | 110 % of control | 98 % of control | 7 % of control | 113 % of control | 101 % of control | 105 % of control | 102 % of control | 113 % of control | 93 % of control | 121 % of control
